The values that follow come from patent US9586999B2, “Methods and compositions related to improving properties of pharmacological agents targeting nervous system” (University of Utah Research Foundation, priority 2006, dated 2017).

Values joined by “and” are separate entries in the source; they are usually repeats but may differ in a detail not shown here. Identical values can stand only once. “Also recorded” adds a separate entry of the source. Like-named read-outs stand apart in the source and are kept apart here. Square brackets hold non-standard residues; d marks the D form. Ends that are not written are not given here. Ahx = NCCCCCC(=O)O

The subject of one assay is 6 Hz limbic seizures. The assay can be described thus: 6 Hz limbic (psychomotor) seizure test. Format: in vivo, mouse. The note with it: for ED50: Mus musculus, ip; for ED50 / ED50 in the 6 Hz limbic seizure model (in Table 14 in parentheses): i.p.; for effect against 6 Hz (22 mA) limbic seizures: administered into the ventricular space, CF-1 mice; for ED50 in the 6 Hz limbic seizure model (in Table 14 in parentheses): SAR analogs; for % Protection at 1, 2 and 4 hours afforded by a dose of 4 mg/kg, i.p. (result in words): all time points; for % Protection at 30 min (4 mg/kg, i.p.): octreotide and DSIP analogs. From the text: Mice not displaying limbic seizures were considered protected.
As mentioned above, the 6 Hz seizure becomes more resistant to block by antiepileptic drugs as the current is increased from 22 mA to 44 mA.

The subject of assay [1] is formalin-induced paw licking. The assay can be described thus: Mouse formalin test of inflammatory pain. Format: in vivo. The following applies: for phase II response at the active dose: mouse formalin assay; for Active at: mouse formalin assay of inflammatory pain; for potency in mouse formalin assay: in vivo. As for the experimental part:
An injection of 0.5% formalin is made into the planter region of a mouse right hind paw. This elicits a distinct biphasic behavioral profile characterized by the mouse licking the affected paw. Immediately following the injection the mouse licks the paw for about 10 minutes. This is phase 1 (acute) and is followed by a brief latent period where there is little behavioral activity. A more prolonged period of about 20 to 30 minutes of paw licking ensues which constitutes phase 2 (inflammatory).
Prior to the administration of the active peptide, drug or vehicle each mouse undergoes a 15-minute conditioning period in one of several 6″ tall plexiglass observation tubes (4″ diameter) that are placed in front of a mirror. […] One hour after treatment, formalin was injected sub-dermally (20 μl; 27 gauge needle) into the plantar surface of the right hind foot. The bevel of the needle is placed facing down toward the skin surface. Following the injection of the formalin each animal is observed for first 2 minutes of each 5 minute epoch for a total of 45 minutes. The cumulative length of licking for each 2 minute time period was measured. An animal receiving the requisite volume of vehicle was alternated with each mouse given GAL-BBB2, Gal 1-16, or gabapentin. Animals were euthanized following the conclusion of the experiment.
Area under the curve (AUC) determination was made using the GraphPad Prism Version 3.03. Total AUC is calculated for both the test and control groups for both the acute and inflammatory phases. The AUC for individual animals for each phase is also calculated and converted to percentage of total AUC of control. The average percentages and SEM for both the drug treated and control were calculated and tested for significant difference.

In a further assay the test system is sound-induced seizures. The assay can be described thus: Frings audiogenic seizure-susceptible mouse model of reflex epilepsy. Format: in vivo.
Source text: (§1) The ability of individual modified peptides to prevent seizures induced by sound in the AGS-susceptible Frings mouse model can be assessed at the time of peak effect (White et al., 1992). For this test, individual mice are placed into a plexiglass cylinder (diameter, 15 cm; height, 18 cm) fitted with an audio transducer (Model AS-ZC; FET Research and Development, Salt Lake City, Utah), and exposed to a sound stimulus of 110 decibels (11 KHz) delivered for 20 seconds. Sound-induced seizures are characterized by wild running followed by loss of righting reflex with forelimb and hindlimb tonic extension. Mice not displaying hindlimb tonic extension are considered protected.
The two modified galanin analogs (GAL-BBB1 and GAL-BBB2) were administered i.p. to a group of Frings audiogenic seizure susceptible mice in a dose of 4 mg/kg. At various times after administration (i.e., 15, 30, 60, 120, and 240 min) each mouse was placed into a cylindrical test chamber fitted with an audio transducer and challenged with a high-intensity sound stimulus (110 dB, 11 KHz for 20 sec). Animals not displaying tonic hind-limb extension were considered protected. […] In a subsequent study, anticonvulsant efficacy was quantitated at the time to peak effect (i.e., 1 h) in a dose-response study.
as §1, with “analogs” for “peptides”
At various times after administration (i.e., 15, 30, 60, 120, and 240 min) each mouse was placed into a cylindrical test chamber fitted with an audio transducer and challenged with a high-intensity sound stimulus (110 dB, 11 KHz for 20 sec).

Where [2] appears, read: stimulus intensity 22 mA, read-out: 22 mA (ED50, 6 Hz model).
Where [3] appears, read: stimulus intensity 32 mA, read-out: 32 mA (ED50, 6 Hz model).
Setting [4] is: stimulus intensity 44 mA, read-out: 44 mA (ED50, 6 Hz model).

Broadly, the ED50 is the dose at which the effect has come halfway, by size or by number of responders. As for `CCC1(C)CC(=O)NC1=O` (centres unmarked) [Ethosuximide, reference compound], the ED50 in the assay on 6 Hz limbic seizures (setting [2]) is 86.9 mg/kg; in the assay on 6 Hz limbic seizures (setting [3]) it was 167 mg/kg; in the assay on 6 Hz limbic seizures (setting [4]), 600 mg/kg.
As for `Nc1nnc(-c2cccc(Cl)c2Cl)c(N)n1` [Lamotrigine, reference compound], the ED50 with 6 Hz limbic seizures (setting [2]) was 4.4 mg/kg; with 6 Hz limbic seizures (setting [3]), above 60 mg/kg; in the assay on 6 Hz limbic seizures (setting [4]), above 60 mg/kg.
As to `O=C1NC(=O)C(c2ccccc2)(c2ccccc2)N1` [Phenytoin, reference compound], the ED50 in the assay with 6 Hz limbic seizures (setting [2]) is 9.4 mg/kg; in the assay on 6 Hz limbic seizures (setting [3]), above 60 mg/kg; in the assay on 6 Hz limbic seizures (setting [4]) it was above 60 mg/kg.
On to `CCCC(CCC)C(=O)O` [Valproic acid, reference compound], for which the results for the ED50 with 6 Hz limbic seizures (setting [2]) and in the assay on 6 Hz limbic seizures (setting [4]) were 41.5 mg/kg and 310 mg/kg, respectively.
Consider `C[C@H](N)C(=O)NCC(=O)N[C@H]1CSSC[C@@H](C(=O)O)NC(=O)[C@H](CO)NC(=O)[C@H]([C@@H](C)O)NC(=O)[C@H](Cc2ccccc2)NC(=O)[C@H]([C@@H](C)O)NC(=O)[C@H](CCCCN)NC(=O)[C@H](Cc2c[nH]c3ccccc23)NC(=O)[C@H](Cc2ccccc2)NC(=O)[C@H](Cc2ccccc2)NC(=O)[C@H](CC(N)=O)NC(=O)[C@H](CCCCN)NC1=O` [somatostatin, reference compound], for which the “effect against 6 Hz (22 mA) limbic seizures” value with 6 Hz limbic seizures is given as “effective”.
Take “(Sar)WTLNSAGY(Ahx)KK(Lys-P)K [NAX 306-4]”: in the assay with 6 Hz limbic seizures (4 mg/kg i.p., 4 mg/kg), the “% Protection at 2 hours afforded by a dose of 4 mg/kg, i.p.” value (shortened to “% Protection at 2 hours afforded … i.p.”) was 0% and 0%, 0%; the “% Protection at 4 hours afforded by a dose of 4 mg/kg, i.p.” value (“% Protection at 4 hours afforded … i.p.” below) was 0% and 0%, 0%. Besides, the “ED50 in the 6 Hz limbic seizure model (in Table 14 in parentheses)” value (from here on “ED50 in the 6 Hz limbic seizure model”) with 6 Hz limbic seizures is recorded as “(2.95 mg/kg)”. Moreover, in assay [1] (2.95 mg/kg), the “activity in the second response phase of the inflammatory pain assay” value was “very active”. Further, in assay [1], the “phase II response at the active dose” value is on record as “(“flat phase II”)”, the Active at is given as 2.9 mg/kg and the “potency in mouse formalin assay” value was “potent”.
(Sar)WTLNSAGYKK(Lys-P)K [NAX 306-3]: in the assay on 6 Hz limbic seizures (4 mg/kg i.p.), the “% Protection at 2 hours afforded … i.p.” value turned out to be 25% and the “% Protection at 4 hours afforded … i.p.” value was found to be 0%. In addition, the “ED50 in the 6 Hz limbic seizure model” value in the assay with 6 Hz limbic seizures was “(2.7 mg/kg)”. Moreover, in assay [1], the “phase II response at the active dose” value is on record as “(“flat phase II”)”, the Active at is 2.7 mg/kg and the “potency in mouse formalin assay” value is on record as “potent”.
For “(Sar)WTLNSAGYLLGPDKDK(Lys-P)DK [NAX 1205-2]”, in the assay on 6 Hz limbic seizures (4 mg/kg i.p.), the “% Protection at 2 hours afforded … i.p.” value is listed as 50% and the “% Protection at 4 hours afforded … i.p.” value came out at 75%. Further, the “ED50 in the 6 Hz limbic seizure model” value in the assay on 6 Hz limbic seizures is recorded as “(1.2 mg/kg)”.
As to (Sar)WTLNSAGYLLGPHA(Lys-P) [NAX 306-5], in the assay on 6 Hz limbic seizures (4 mg/kg i.p.), the “% Protection at 1, 2 and 4 hours afforded by a dose of 4 mg/kg, i.p. (result in words)” value is “Not active”.
Consider “(Sar)WTLNSAGYLLGPRR(Lys-P)R [NAX 1205-3]”, for which, in the assay on 6 Hz limbic seizures (4 mg/kg i.p.), the “% Protection at 2 hours afforded … i.p.” value is listed as 75% and the “% Protection at 4 hours afforded … i.p.” value was 0%.
The matching figures for (Sar)WTLNSAGYLLKK(Lys-P)K [NAX 1205-5]: 25% and 0%.
Regarding “DPhe-Cys-Phe-DTrp-Lys-Thr-Cys-Thr-NH2 [SEQ ID NO: 148, reference compound]”, in the assay with 6 Hz limbic seizures (4 mg/kg i.p.), the “% Protection at 30 min (4 mg/kg, i.p.)” value is 50%.
As for “GWTLNSAGYLLGPHAV [Gal(1-16), reference compound]”, in the assay with sound-induced seizures (20 mg/kg i.p.), the “anticonvulsant activity of native fragment” value was “inactive; also recorded: but not the native GAL(1-16) fragment (20 mg/kg) was effective”. The “% Protection at 1, 2 and 4 hours afforded by a dose of 4 mg/kg, i.p. (result in words)” value with 6 Hz limbic seizures (4 mg/kg i.p.) is “Not active”. The “ED50 following i.c.v. administration” value with 6 Hz limbic seizures (intracerebroventricular, 6 Hz (32 mA)) is 1.7 nmol. Moreover, in assay [1] (20 mg/kg i.p.), the “activity of native fragment in formalin test” value was “inactive”.
For “Lys-Lys-Lys(palm)-Lys-Ahx-DPhe-Cys-Phe-DTrp-Lys-Thr-Cys-Thr-NH2 [SEQ ID NO: 149]”, the “% Protection at 30 min (4 mg/kg, i.p.)” value in the assay on 6 Hz limbic seizures (4 mg/kg i.p.) was 100%.
As for “Sar-Trp-Thr-Leu-Asn-Ser-Ala-Gly-Tyr-Leu-Leu-Gly-Pro-His-(Lys-palm)-Tle-NH2 [GAL-BBB1]”, in the assay on sound-induced seizures (4 mg/kg i.p., 15-240 min, also higher dose of 12 mg/kg), the “anticonvulsant activity (protection from tonic hind-limb extension)” value was “not active at any time point tested”.
For the compound WAGGDFSGE [DSIP, reference compound], the “% Protection at 30 min (4 mg/kg, i.p.)” value with 6 Hz limbic seizures (4 mg/kg i.p.) is reported as 0%. In the assay with 6 Hz limbic seizures, the “effect against 6 Hz (22 mA) limbic seizures” value is “effective”.
[Ahx]GGWAGGDFSGE [SEQ ID NO: 142]: the “% Protection at 30 min (4 mg/kg, i.p.)” value in the assay with 6 Hz limbic seizures (4 mg/kg i.p.) is recorded as 50%. Also, the “% Protection after 2 hours” value with 6 Hz limbic seizures (2 hours, 4 mg/kg i.p.) was “NO: 142) (100% after 2 hours)”.
